What all share (assay): NCI-60 cell line screen, 48 h
Assay [1] relates to ACHN renal.
The subject of assay [2] is COLO 205 colon.
Assay [3] deals with EKVX NSCLC.
For assay [4], the system named is HCT-116 colon.
Assay [5] has as its system KM12 colon.
The subject of assay [6] is SF-539 CNS.
Assay [7] deals with SNB-19 CNS.
For assay [8], the system named is UACC-257 melanoma.
In assay [9] the test system is MDA-MB-435.
Assay [10] relates to T-47D breast.

Molecules are shown by their SMILES.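 A five-concentration, 48-hour dose response in 96-well plates underlies each endpoint, interpolated linearly between surrounding concentrations. TGI: concentration producing complete growth inhibition.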

Take `CCOC(=O)CC1COc2ccc3c(c21)OCO3` (configuration not stated): the TGI in [1], in assay [2], in [3], in [4], in assay [5] and in assay [6] was more than 100 µM throughout. For the same molecule, the TGI in [7] and in assay [8] was more than 100 µM in each case.
Consider `CCOC(=O)C1SC(=Nc2ccc(OC)c(OC)c2)N=C1C` (configuration not stated), for which the TGI in assay [1], in [2], in [3], in assay [4], in assay [5] and in assay [6] was more than 100 µM throughout. Also, the TGI in assay [7] and in assay [8] was more than 100 µM throughout.
Regarding `CC(CC(N)C(=O)O)C(=O)O` (configuration not stated), the TGI in assay [1], in assay [3], in assay [4], in assay [5], in [9] and in assay [7] was more than 100 µM throughout. For the same molecule, the TGI in assay [10] and in assay [8] was more than 100 µM each time.
With `CC(C)C(=O)N1Cc2cc(Cl)cc(Cl)c2OC(=O)c2ccccc21`, the TGI in [1] is 72.9 µM; in assay [2], more than 100 µM; in assay [3] it was 67.2 µM; in [4], more than 100 µM; in assay [5], more than 100 µM; in assay [6], 35.4 µM. For the same molecule, the TGI in assay [7] was more than 100 µM; in [8], 32.8 µM.
With `O=P1(c2ccccc2)c2ccccc2-c2ccccc21`, the TGI in assay [2], in [3], in assay [4], in assay [5], in [9] and in [6] was more than 100 µM each time. The TGI in [7] and in assay [8] was more than 100 µM in each case.
For `O=C(/C=C\c1cccc2ccccc12)c1ccc(F)cc1`, the TGI in assay [1] was found to be 30.8 µM; in assay [2], 35.3 µM; in [3], 35.2 µM; in [4], 26.8 µM; in assay [5] it was 28.8 µM; in assay [6], 41.4 µM. The TGI in assay [7] was found to be 31 µM; in assay [8], 34.7 µM.
As to `CN(CC(=O)O)c1ncc2c(n1)C=CCC2`, the TGI in [1], in assay [2], in assay [3], in [4], in [5] and in [9] was more than 100 µM each time. Further, the TGI in assay [6], in [7] and in [8] was more than 100 µM in each case.
For the molecule `CC(=O)OCC1OC(n2ccc(=O)[nH]c2=O)C(OC(C)=O)C(OC(C)=O)C1OC(C)=O` (configuration not stated), the TGI in [1], in assay [2], in [3], in [4], in [5] and in [7] was more than 100 µM throughout. The TGI in [8] was more than 100 µM.
For `COc1ccc(C2=NN(c3ccccc3)C[N+](c3ccc(C)cc3)=N2)cc1`, the TGI in assay [1] was more than 100 µM; in assay [2], more than 100 µM; in assay [3], more than 100 µM; in assay [4], more than 100 µM; in assay [5] it was more than 10 µM; in assay [7], more than 100 µM. The TGI in [8] is more than 100 µM.
For `COc1cc(C2C3=C(COC3=O)Oc3cc4c(cc32)OCO4)ccc1O` (configuration not stated), the TGI is more than 94.7 µM in assay [1]; 0.576 µM in assay [2]; more than 100 µM in assay [3]; more than 48.3 µM in assay [4]; more than 100 µM in [5]; 1.03 µM in assay [6]. Also, the TGI in assay [7], in [10] and in [8] was more than 100 µM in each case.
Turning to `COc1ccc(/C(C)=N/NC(=O)c2ccncc2)c(OC)c1`, the TGI in assay [2], in [3], in [5], in [6], in assay [10] and in assay [8] was more than 10 µM throughout.
Turning to `O=C(Nc1ccc(Cl)cc1C(F)(F)F)C(=O)C1CCCS1(=O)=O` (configuration not stated), the TGI in [1], in assay [2], in assay [3], in [4], in assay [5] and in [6] was more than 100 µM in each case. Further, the TGI in assay [7] and in assay [8] was more than 100 µM throughout.
Turning to `CCC(C)C(N)C(=O)NC(CC(N)=O)C(=O)NC(CC(C)C)C(=O)NC(CCCCN)C(=O)NC(C)C(=O)NC(CC(C)C)C(=O)NC(C)C(=O)NC(C)C(=O)NC(CC(C)C)C(=O)NC(C)C(=O)NC(CCCCN)C(=O)NC(CCCCN)C(=O)NC(C(=O)NC(CC(C)C)C(N)=O)C(C)CC` (configuration not stated), the TGI in assay [1] was determined as 27.2 µM; in assay [2], 32.1 µM; in [3], 18.7 µM; in [4] it was 29 µM; in assay [5], 29.5 µM; in [6], 11.3 µM. Also, the TGI in assay [7] worked out at 27.8 µM; in assay [8], 19.1 µM.
Regarding `O=C(O)/C(Cl)=C(\Cl)C(=O)c1ccccc1`, the TGI in [1], in assay [2], in assay [3], in assay [4], in [5] and in [6] was more than 100 µM each time. Moreover, the TGI in assay [7] and in [8] was more than 100 µM throughout.
`COc1ccccc1Cc1ccc(C2C=CC3(CC(=O)C=C3C)C(=O)C2)o1` (configuration not stated): the TGI in assay [1] is more than 100 µM; in [2], 50.5 µM; in assay [3], more than 100 µM; in [4] it was 89.6 µM; in assay [5], more than 100 µM; in [9], 46.8 µM. Further, the TGI in [6] was 42.9 µM; in [7] it was more than 100 µM; in assay [8] it was 68.9 µM.
On to `CC(=O)OC(CC1(C)C(C)CCC23COC(=O)C2=CCCC31)c1ccoc1` (configuration not stated), for which the TGI in [1] is more than 100 µM; in [2], more than 100 µM; in assay [3] it was 97.6 µM; in [4], 61.6 µM; in [5], 67.4 µM; in assay [6], 62.5 µM. Also, the TGI in assay [7] came out at 82.9 µM; in [8], 72.5 µM.

The values above are taken from PubChem BioAssay (NCI).
